The values that follow come from PubChem BioAssay (NCI).

“And” between values parts separate entries of the source, which are not always exact repeats. Equal values may be shown once.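 Growth conditions: 96-well plates. Treatment: test compound, 48 hours, 5 concentrations. Analysis: linear interpolation between bracketing concentrations; unreached endpoints set to highest concentration. GI50 is the concentration that inhibits growth by half. TGI: total growth inhibition.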 Where only a bound is given, the exact number is not on record here.

Experiment in all cases: inhibition of tumour cell growth, NCI panel, 48 h
Test [1] concerns A549 NSCLC.
Test [2] has as its system COLO 205 colon.
For test [3], the system named is HOP-92 NSCLC.
The test system of test [4] is K-562 leukemia.
Test [5] relates to MOLT-4 leukemia.
Test [6] relates to SF-268 CNS.
Test [7] relates to SK-MEL-2 melanoma.
Test [8] concerns UACC-62 melanoma.
Test [9] deals with MCF7 breast.

Take `CCOc1ccc(NC(=O)C(=O)C(C(=O)c2ccc3ccccc3c2)C2OC(=O)c3ccccc32)cc1` (stereo not given): the TGI in [1] was above 100 µM; in test [2] it was 41.7 µM; in [3], 68.3 µM; in [4] it was above 100 µM; in test [5] it was 43.7 µM; in test [6], 62.4 µM. Further, the TGI turned out to be 37.2 µM in [7] and 27.2 µM in test [8].
In the case of `CCCCCCCCC/C=C1\CCC(CN(C)C)C1=O` (stereo not given), the TGI in test [1] was 18 µM; in [2], 5.37 µM; in [3] it was 4.39 µM; in test [4], 7.53 µM; in test [5], 8.49 µM; in [6] it was 3.71 µM. The TGI in [7] was found to be 6.42 µM; in [8] it was 5.73 µM.
Regarding `CNC(=O)OCc1c2ccncc2c(C)c2c1[nH]c1ccc(OC)cc12`, the TGI is above 100 µM in test [1]; 2.11 µM in [2]; 0.618 µM in test [3]; 2.48 µM in test [4]; 0.516 µM in test [5]; 0.79 µM in test [6]. Also, the TGI in test [7] was found to be 0.509 µM; in test [8] it was 0.454 µM.
Consider `C[C@]12CCC(=O)CC1CCCC2=O` (stereo not given in full), for which the TGI in [1], in test [2], in [3], in test [4], in test [5] and in test [6] was above 100 µM each time. The TGI in test [7] and in test [8] was above 100 µM in each case.
With `CCOC(=O)/C(O)=C(/C(=O)OC)c1ccc(Cl)cc1`, the TGI in test [1], in [2], in test [4], in test [5], in test [6] and in test [7] was above 100 µM in each case. The compound further returned a TGI in test [8] above 100 µM.
As to `CCCN(CCC)C(=O)C(=O)c1c(N)[nH]n(-c2ccccc2)c1=O`, the TGI in test [1], in test [2], in [3], in [4], in test [5] and in test [6] was above 100 µM each time. In addition, the TGI in test [7] and in test [8] was above 100 µM in each case.
With `CN(C)C(=O)c1ccc([N+](=O)[O-])cc1`, the TGI in [1], in test [2], in [3], in [4], in test [5] and in test [6] was above 100 µM each time. For the same compound, the TGI in test [7] and in test [8] was above 100 µM throughout.
For the compound `COc1cccc(NC(=O)CC(=O)N2N=C(N3c4ccccc4Sc4ccccc43)CC2c2ccccc2)c1` (stereo not given), the TGI in test [1], in test [2], in [3], in test [5], in test [6] and in test [8] was above 100 µM in each case.
On to `CC(=O)[CH-]C(=O)c1ccccc1.CC(=O)[CH-]C(=O)c1ccccc1.CC(=O)[CH-]C(=O)c1ccccc1.[In+3]`, for which the GI50 is 48.8 µM in test [1]; 31.9 µM in [2]; 17.8 µM in test [3]; 31 µM in test [4]; 19.9 µM in test [6]; 13 µM in test [7]. In addition, the GI50 in test [8] was 32.9 µM. Further, the TGI in test [1] was above 100 µM; in [2], 85.4 µM; in test [3] it was 49.8 µM; in [4], above 100 µM; in test [6], above 100 µM; in [7], 34.2 µM. The TGI in test [8] is above 100 µM.
Regarding `COc1cc(C2c3cc4c(cc3[C@@H](NCCN3CCOCC3)C3COC(=O)[C@H]23)OCO4)cc(OC)c1O` (stereo not given in full), the GI50 was 0.314 µM and 0.761 µM in [1]; 8.01 µM and 1.95 µM in [2]; 0.137 µM and 0.402 µM in test [5]. Moreover, the TGI was 2.64 µM and 4.28 µM in test [1]; 19.4 µM and > 17.5 µM in test [2]; 4.73 µM and 10.4 µM in test [3]; above 75 µM in test [4]; 4.48 µM and 4.87 µM in [5]; 10.2 µM in test [6]. For the same compound, the TGI was 14.5 µM and 11.3 µM in test [7]; 4.99 µM and 6.06 µM in test [8].
As to `N#CNC(=NCCc1c[nH]c2ccccc12)Oc1ccccc1`, the TGI in test [1], in test [2], in test [4], in test [5], in test [6] and in test [8] was above 100 µM throughout.
Turning to `COC(=O)C(CC1=C(O)Nc2ccccc2N1)/C(=N/NC(N)=O)C(=O)Nc1ccccc1C` (stereo not given), the TGI was above 100 µM in test [1]; above 100 µM in test [2]; above 100 µM in [3]; above 100 µM in [4]; above 100 µM in test [5]; 45.2 µM in [6]. Moreover, the TGI in [7] and in test [8] was above 100 µM throughout.
On to `O=C1/C(=N\O)S(=O)(=O)c2ccccc21`, for which the TGI in test [1], in [2], in test [3], in test [4], in [5] and in [6] was above 100 µM in each case. The TGI in test [7] and in [8] was above 100 µM throughout.
On to `COC1=C(C)C(=O)c2c(cc3c(c2O)C(C)(CCC=C(C)C)C(C)O3)C1=O` (stereo not given), for which the TGI was 39.8 µM in [1]; above 100 µM in test [2]; above 100 µM in test [3]; above 100 µM in [4]; above 100 µM in test [5]; above 100 µM in test [6]. Moreover, the TGI in test [7] is above 60.8 µM; in [8] it was 97 µM.
Regarding `CN(C)C(=O)c1cnc2oc3ccc(O)cc3c2c1-c1ccccc1`, the GI50 in test [1] was above 25 µM; in test [3] it was above 25 µM; in test [4], above 25 µM; in [9] it was above 25 µM; in test [5] it was above 25 µM; in test [6], 20.2 µM. For the same compound, in [7], the GI50 was above 25 µM. The TGI in [1], in test [3], in test [4], in test [9], in [5] and in [6] was above 25 µM in each case. For the same compound, the TGI in test [7] was above 25 µM.
